Measurements as given in patent US6737537B2, “Platinum (II) antitumor compounds” (Parker Hughes Institute, priority 1999, dated 2004).

Key:
NALM-6 (Leukemia) = test: MTT cytotoxicity assay, NALM-6 cells, 48 hours; type: cell-based, human; conditions: 48 hours incubation, read-out: IC50 [MTT Assays] NALM-6 (Leukemia)
Description: (§1) The cells were incubated with concentrations ranging from 0.1 μM to 250 μM of the appropriate compound in 96-well plates for 48 hours. Cytotoxicity was determined by MTT [(3-[4,5-dimethylthiazol-2-yl]-2,5-diphenyl tetrazolium bromide)] assays. The results are graphed in FIG. 1a for NALM-6 cells and FIG. 1b for MOLT-3 cells.
(§2) Cytotoxicity was determined by MTT assays and the IC50 values were determined using Graphpad Prism Software.

MOLT-3 (Leukemia) = test: MTT cytotoxicity assay, MOLT-3 cells, 48 hours; type: cell-based, human; conditions: 48 hours incubation, read-out: IC50 [MTT Assays] MOLT-3 (Leukemia)
Description: as §1, §2

[1] = system: U266BL (Multiple Myeloma); test: MTT cytotoxicity assay, U266BL cells, 48 hours; type: cell-based; conditions: 48 hours incubation, read-out: IC50 [MTT Assays] U266BL (Multiple Myeloma)
Description: as §2

[2] = system: HS-Sultan (Multiple Myeloma); test: MTT cytotoxicity assay, HS-Sultan cells, 48 hours; type: cell-based; conditions: 48 hours incubation, read-out: IC50 [MTT Assays] HS-Sultan (Multiple Myeloma)
Description: as §2

BT-20 (Breast Cancer) = test: MTT cytotoxicity assay, BT-20 cells, 48 hours; type: cell-based; conditions: 48 hours incubation, read-out: IC50 [MTT Assays] BT-20 (Breast Cancer)
Description: as §2

PC3 (Prostate Cancer) = test: MTT cytotoxicity assay, PC3 cells, 48 hours; type: cell-based; conditions: 48 hours incubation, read-out: IC50 [MTT Assays] PC3 (Prostate Cancer)
Description: as §2

U373 (Brain Tumor) = test: MTT cytotoxicity assay, U373 cells, 48 hours; type: cell-based; conditions: 48 hours incubation, read-out: IC50 [MTT Assays] U373 (Brain Tumor)
Description: as §2

[3] = system: MDA-MB-231 (Breast Cancer); test: MTT cytotoxicity assay, MDA-MB-231 cells, 48 hours; type: cell-based; conditions: 48 hours incubation, read-out: IC50 [MTT Assays] MDA-MB-231 (Breast Cancer)
Description: as §2

[4] = system: B-lineage acute lymphoblastic leukemia (NALM-6) cells; test: In situ apoptosis assay (TUNEL), NALM-6 cells; type: cell-based, human; conditions: 5 μM, 48 hours
Description: (§3) The effectiveness of inducing apoptosis by compound (5) as synthesized and described in example 2 was measured for human B-lineage acute lymphoblastic leukemia (NALM-6) cells, T-lineage acute lymphoblastic leukemia (MOLT-3) cells, and multiple myeloma (ARH-77) cells. The cells were incubated with concentrations of 5 μM of compound (5) in 96-well plates 48 hours. An in situ apoptosis assay, which allows the detection of exposed 3′-hydroxyl groups in fragmented DNA by TdT-mediated dUTP nick-end labeling (TUNEL), was used by fixing, permeabilizing and visualizing the DNA degradation. Apoptotic nuclei were detected visually with a color change. The amount of apoptotic nuclei of the control cells (not incubated with compound (5)) and the incubated cells were compared.

[5] = system: T-lineage acute lymphoblastic leukemia (MOLT-3) cells; test: In situ apoptosis assay (TUNEL), MOLT-3 cells; type: cell-based, human; conditions: 5 μM, 48 hours
Description: as §3

[6] = system: multiple myeloma (ARH-77) cells; test: In situ apoptosis assay (TUNEL), ARH-77 cells; type: cell-based, human; conditions: 5 μM, 48 hours
Description: as §3

[7] = system: B-lineage acute lymphoblastic leukemia (NALM-6) cells; test: Clonogenic growth assay, NALM-6 cells; type: cell-based, human; conditions: 24 hours exposure, 7 days culture
Description: (§4) The effect on clonogenic growth of human cancer cell lines was determined for compound (5) as synthesized and described in example 2 and cisplastin for human B-lineage acute lymphoblastic leukemia (NALM-6) cells and T-lineage acute lymphoblastic leukemia (MOLT-3) cells. The cells were incubated with concentrations ranging from 0 (control) to 10 μM of the appropriate compound for 24 hours at 37° C. in a humidified 5% CO2 atmosphere. The cells were then resuspended in clonogenic a-MEM medium containing 0.9% methyl cellulose. 1×10^4 cells/dish were plated in 35 mm Petri dishes and cultured for 7 days at 37° C. in a humidified 5% CO2 atmosphere. The colonies containing ≧20 cells were counted using an inverted phase microscope.

[8] = system: T-lineage acute lymphoblastic leukemia (MOLT-3) cells; test: Clonogenic growth assay, MOLT-3 cells; type: cell-based, human; conditions: 24 hours exposure, 7 days culture
Description: as §4

Compound: N.N.[Cl][Pt][Cl] [Cisplatin, reference compound]
- IC50 (NALM-6 (Leukemia)): 1.1 ± 0.02 µM
- IC50 (MOLT-3 (Leukemia)): 1.04 ± 0.02 µM
- IC50 [1]: 15.6 ± 3.5 µM
- IC50 [2]: 31.8 ± 7.2 µM
- IC50 (BT-20 (Breast Cancer)): 7.21 ± 3.5 µM
- IC50 (PC3 (Prostate Cancer)): > 250 µM
- IC50 (U373 (Brain Tumor)): > 250 µM

Compound: cis-[Pt(CPDCA)(NH2C2H4OH)2] [(3) DDE248]
- IC50 (NALM-6 (Leukemia)): 75.3 ± 5.2 µM
- IC50 (MOLT-3 (Leukemia)): 33.5 ± 4.5 µM
- IC50 (BT-20 (Breast Cancer)): 48.9 ± 7.3 µM
- IC50 (PC3 (Prostate Cancer)): 248 ± 9.3 µM
- IC50 (U373 (Brain Tumor)): 130 ± 8.2 µM

Compound: cis-[Pt(CPDCA)(DACH)]H2O [(5) DDE250]
- IC50 (NALM-6 (Leukemia)): 0.45 ± 0.02 µM
- IC50 (MOLT-3 (Leukemia)): 0.66 ± 0.01 µM
- IC50 [1]: 18.6 ± 2.1 µM
- IC50 [2]: 21.5 ± 3.5 µM
- IC50 (BT-20 (Breast Cancer)): 21.3 ± 3.1 µM
- IC50 [3]: 38.5 ± 6.4 µM
- IC50 (PC3 (Prostate Cancer)): > 250 µM
- IC50 (U373 (Brain Tumor)): > 250 µM
- apoptosis (apoptotic nuclei, TUNEL) over the control [4]: greatly increased apoptosis over the control
- apoptosis (apoptotic nuclei, TUNEL) over the control [5]: greatly increased apoptosis over the control
- apoptosis (apoptotic nuclei, TUNEL) over the control [6]: greatly increased apoptosis over the control
- % Inhibition (clonogenic growth) ([7]; NALM-6, 0.01 μM): 42.9%
- Mean No. of Colonies/10^5 cells ([7]; NALM-6, 0.01 μM): 2110 (1928, 2292) Colonies/10^5 cells
- % Inhibition (clonogenic growth) ([7]; NALM-6, 0.1 μM): 48.4%
- Mean No. of Colonies/10^5 cells ([7]; NALM-6, 0.1 μM): 1908 (1886, 1930) Colonies/10^5 cells
- % Inhibition (clonogenic growth) ([7]; NALM-6, 1 μM): 93.3%
- Mean No. of Colonies/10^5 cells ([7]; NALM-6, 1 μM): 248 (228, 268) Colonies/10^5 cells
- Mean No. of Colonies/10^5 cells ([7]; NALM-6, 10 μM): 0 Colonies/10^5 cells
- % Inhibition (clonogenic growth) ([8]; MOLT-3, 0.01 μM): 67.7%
- Mean No. of Colonies/10^5 cells ([8]; MOLT-3, 0.01 μM): 1182 (1080, 1284) Colonies/10^5 cells
- % Inhibition (clonogenic growth) ([8]; MOLT-3, 0.1 μM): 67.5%
- Mean No. of Colonies/10^5 cells ([8]; MOLT-3, 0.1 μM): 1188 (1095, 1281) Colonies/10^5 cells
- % Inhibition (clonogenic growth) ([8]; MOLT-3, 1 μM): 95.1%
- Mean No. of Colonies/10^5 cells ([8]; MOLT-3, 1 μM): 179 (170, 188) Colonies/10^5 cells
- Mean No. of Colonies/10^5 cells ([8]; MOLT-3, 10 μM): 0 Colonies/10^5 cells

Compound: cis-[Pt(CPDCA)(NH3)2]H2O [(6) DDE173]
- IC50 (NALM-6 (Leukemia)): 90.8 ± 6.2 µM
- IC50 (MOLT-3 (Leukemia)): 41.8 ± 3.5 µM
- IC50 (BT-20 (Breast Cancer)): > 250 µM
- IC50 (PC3 (Prostate Cancer)): > 250 µM
- IC50 (U373 (Brain Tumor)): > 250 µM
